Consider one compound from ChEMBL document CHEMBL1155602, “Three new scalarane sesterterpenoids from the Okinawan sponge Hyrtios erectus” (J Nat Prod, 2000).

For the experiment, the system named is KB. The experiment in a line: Antiproliferative activity against human KB cells. Type of experiment: functional, cell-based.

In brackets after ≈: the same amount, converted by molar mass.

The term IC50 denotes the concentration that gives 50% inhibition. The low end stands for inhibition by little substance, the high end for a need for much substance. For the compound `CC1(C)CCC[C@]2(C)[C@H]3C[C@@H](O)[C@]4(C)C=C(C=O)CC[C@H]4[C@]3(C)CC[C@@H]12`, the IC50 is 2.82 µg/mL (≈ 7.86 µM).
